In publication PMC6385203, “Mutations in the palm domain disrupt modulation of acid-sensing ion channel 1a currents by neuropeptides” (Scientific Reports, 2019):
Peptide text beside a SMILES is read from it.

Target: T1, ASIC1a N416C (Homo sapiens, UniProt P78348, N416C)
T1 construct: expressed in transfected cells; host or cells: Xenopus laevis oocytes injected with cRNA
T1 sequence (P78348 1-528 N416C): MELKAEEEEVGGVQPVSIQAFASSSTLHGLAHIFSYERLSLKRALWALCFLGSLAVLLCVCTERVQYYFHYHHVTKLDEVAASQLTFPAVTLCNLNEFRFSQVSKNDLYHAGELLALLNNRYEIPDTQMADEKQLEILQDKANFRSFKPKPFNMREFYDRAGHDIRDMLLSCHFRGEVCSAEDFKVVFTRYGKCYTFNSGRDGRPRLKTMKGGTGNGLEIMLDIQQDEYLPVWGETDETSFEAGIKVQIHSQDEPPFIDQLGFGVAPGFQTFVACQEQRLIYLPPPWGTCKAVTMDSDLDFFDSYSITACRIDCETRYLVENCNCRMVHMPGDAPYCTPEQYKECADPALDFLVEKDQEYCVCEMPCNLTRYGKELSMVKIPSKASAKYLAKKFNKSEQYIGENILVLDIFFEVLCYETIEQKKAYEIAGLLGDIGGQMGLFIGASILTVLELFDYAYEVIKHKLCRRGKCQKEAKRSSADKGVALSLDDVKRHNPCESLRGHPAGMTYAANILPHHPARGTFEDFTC
Test: Disappearance of FRRFa-induced Isust on washout, N416C
Format: cell-based
Settings: washout after 50 μM FRRFa 45 s, n = 9
Experimental: Figure 6 Mutations of the palm change FRRFa modulation of ASIC1a. Mutants containing “-ET” in their name had been exposed during 3 min to 1 mM MTSET prior to the experiment. (a) Representative current traces of the mutant E418C in the absence and presence of 50 μM FRRFa. (b) Bar graph of the Isust/Ipeak ratio induced by pH5 of WT and mutants as indicated (n = 5–41). For (b,g–i) *p < 0.05; **p < 0.01, ***p < 0.001, ****p < 0.0001, different from WT. (c) Ratio of 50 μM FRRFa-induced increase in Isust/Ipeak (n = 5–41). (d) Ratio of 500 μM FRRFa-induced increase in Isust/Ipeak (n = 5–11). For (b–d) ^#p < 0.05; ^##p < 0.01; ^###p < 0.001; ^####p < 0.0001; ratio different from the ratio in WT. (e) FRRFa concentration-response curve of the Isust/Ipeak current ratio induced by pH5 in oocytes expressing N416C, n = 8. The WT curve is shown for comparison (n = 7–11). (f) Time course of disappearance of the FRRFa-induced sustained current in the N416C mutant and in WT. 50 μM FRRFa was applied for 45 s, and then washed out. […]
Electrophysiological measurements were performed 1–2 days after cRNA injection. Ion currents were recorded using two-electrode voltage-clamp at a holding potential of −60 mV with a Dagan TEV-200 amplifier (Minneapolis, MN). […] The amplitude of the sustained current was measured in the last two seconds of the pH5 perfusion. […]

N=C(N)NCCC[C@H](NC(=O)[C@H](CCCNC(=N)N)NC(=O)[C@@H](N)Cc1ccccc1)C(=O)N[C@@H](Cc1ccccc1)C(N)=O [FRRFa, Phe-Arg-Arg-Phe-amide] (H-FRRF-NH2)
koff: 0.027 ± 0.003 s⁻¹
